Data as given in patent US20230337671A1, “DISINFECTANT COMPOSITION” (Helperby Therapeutics Limited, priority 2020, published 2023).

Experiments:
Type in all cases: physicochemical
[1] = Surface tension, Wilhelmy plate method (DataPhysics DCAT 9 tensionmeter); settings: 0.03% w/w HT61 in demineralised water, assumed saturated; measured three times
Procedure: (§1) To support the use of a low concentration of HT61 acting as an emollient in an aqueous disinfectant composition, the surface tension, contact angle and hydrophilic lipophilic balance (HLB) of this compound were determined. • Sample Preparation: A 0.03% w/w solution was required for both the contact angle and surface tension measurements. This solution was prepared by adding 0.075 g of the HT61 solid (obtained according to the method set out in WO 2007/054693 A1 discussed above) to 250 ml of demineralised water. Some solid remained in solution so analysis was carried out using UV-Vis Spectroscopy. […] The surface tension of the sample was measured using a DataPhysics DCAT 9 tensionmeter and the Wilhelmy plate method. The measurement was made three times, with the plate being cleaned between each measurement. • The contact angle was measured on the surface of parafilm. A sample of parafilm was wrapped around a glass slide and the protective film removed. The contact angle of the liquid with the parafilm was measured by placing a small (e.g. 2 μl) drop of test liquid (the sample) on the test surface. The profile of the drop was measured as a function of time using a DataPhysics OCA 35. Each liquid was measured three times. The contact angles were determined 2 s, 12 s and 30 s after the drop first touched the surface. […]

[2] = Contact angle of a drop on the surface of parafilm (DataPhysics OCA 35); settings: 0.03% w/w solution
Procedure: To support the use of a low concentration of HT61 acting as an emollient in an aqueous disinfectant composition, the surface tension, contact angle and hydrophilic lipophilic balance (HLB) of this compound were determined. • Sample Preparation: A 0.03% w/w solution was required for both the contact angle and surface tension measurements. This solution was prepared by adding 0.075 g of the HT61 solid (obtained according to the method set out in WO 2007/054693 A1 discussed above) to 250 ml of demineralised water. Some solid remained in solution so analysis was carried out using UV-Vis Spectroscopy. […] The surface tension of the sample was measured using a DataPhysics DCAT 9 tensionmeter and the Wilhelmy plate method. The measurement was made three times, with the plate being cleaned between each measurement. • The contact angle was measured on the surface of parafilm. A sample of parafilm was wrapped around a glass slide and the protective film removed. The contact angle of the liquid with the parafilm was measured by placing a small (e.g. 2 μl) drop of test liquid (the sample) on the test surface. The profile of the drop was measured as a function of time using a DataPhysics OCA 35. Each liquid was measured three times. The contact angles were determined 2 s, 12 s and 30 s after the drop first touched the surface. For reference, the contact angle of demineralised water was also measured. • The HLB Value was obtained using […] mathematical method (Griffin, W.C., Calculation of HLB Values of Non-Ionic Surfactants, Journal of the Society of Cosmetic Chemists, 1954, 5(4), 249-56): • [formula] • where Mh is the molecular weight of hydrophilic groups (44 gmol^-1) and M is the molecular weight of the whole molecule (380 gmol^-1). • The factor 20 is a scaling factor. Thus a scale of 1 to 20 is generally obtained.

[3] = Preparation of 0.03% w/w HT61 solution in demineralised water, UV-Vis check; settings: 0.075 g HT61 solid added to 250 ml demineralised water (0.03% w/w)
Procedure: as §1

- Average Surface Tension [1]: 55.7 mN/m
- Average Contact Angle @2s ([2]; 2 s after drop touched surface): 98
- Average Contact Angle @12s ([2]; 12 s after drop touched surface): 96
- Average Contact Angle @30s ([2]; 30 s after drop touched surface): 96
- Dissolution of HT61 solid in demineralised water [3]: the solution was saturated
Structure (SMILES): Cc1nc2ccc(Oc3ccccc3)cc2c2c1CCN2CCc1ccccc1 [HT61, 4-methyl-8-phenoxy-1-(2-phenylethyl)-2,3-dihydro-1H-pyrrolo[3,2-c]quinoline]
